{"source": "patent US8466088B2", "about": "“Herbicidal compositions containing benzoylpyrazole compounds” (Ishihara Sangyo Kaisha, Ltd., priority 2007, dated 2013)", "key": {"[1]": {"system": "velvetleaf", "experiment": "Example 1: pot test, foliar treatment, visually observed growth inhibition of velvetleaf", "assay_type": "in vivo, Abutilon theophrasti MEDIC.", "details": "Abutilon theophrasti, foliar, foliar, read-out: Growth inhibition rate (%) of velvetleaf, Measured value"}, "[2]": {"system": "various plants", "experiment": "Example 1: pot test, foliar treatment, visually observed growth inhibition of other sown plants (Tables 5-1 to 5-137)", "assay_type": "in vivo", "details": "foliar", "excerpt": "When the herbicidal activity in a case where two active ingredients are combined, is larger than the simple sum of the respective herbicidal activities of the two active ingredients (the expected activity), it is called a synergistic effect. The activity expected by the combination of two active ingredients can be calculated as follows (Colby S. R., “Weed”, vol. 15, p. 20-22, 1967). E=α+β−(α×β+100) where\nα: growth inhibition rate when treated with x (g/ha) of herbicide X,\nβ: growth inhibition rate when treated with y (g/ha) of herbicide Y,\nE: growth inhibition rate expected when treated with x (g/ha) of herbicide X and y (g/ha) of herbicide Y.\nThat is, when the actual growth inhibition rate (measured value) is larger than the growth inhibition rate by the above calculation (calculated value), the activity by the combination can be regarded as showing a synergistic effect.\nUpland field soil was put into a 1/1,000,000 hectare pot, and seeds of various plants were sown. When the respective plants reached predetermined leaf stage, herbicidal compositions in predetermined amounts were diluted with water in an amount corresponding to 300 L/ha and applied for foliar treatment by a small sprayer.\nOn the 14th to 28th day after application, the state of growth of the respective plants was visually observed to determine the growth inhibition rate (measured value) in accordance with the following evaluation standard. Further, in accordance with the above Colby's formula, the growth inhibition rate (calculated value) was calculated. In Tables, with respect to the compound A, Compound Nos. in Table 1 or 3 are described, and with respect to other herbicidal compounds, common names are described."}, "[3]": {"system": "crabgrass", "experiment": "Example 1: pot test, foliar treatment, visually observed growth inhibition of crabgrass", "assay_type": "in vivo", "details": "Digitaria sanguinalis, foliar, read-out: Growth inhibition rate (%) of crabgrass, Measured value"}, "[4]": {"details": "2.4 to 3.2 leaf stage, on the 22nd day after application, active ingredient amount 125 g/ha"}, "[5]": {"details": "2.8 to 3.6 leaf stage, 24th day after application"}, "[6]": {"details": "3.0 to 3.5 leaf stage, 20th day after application, 125 g/ha"}, "[7]": {"details": "3.2 to 4.1 leaf stage, 21st day after application"}, "[8]": {"details": "4.0 to 4.4 leaf stage, 22nd day after application"}, "[9]": {"details": "2.7 to 3.6 leaf stage, 21st day after application"}, "[10]": {"details": "3.1 to 4.0 leaf stage, 22nd day after application"}, "[11]": {"details": "3.2 to 4.3 leaf stage, on the 22nd day after application, active ingredient amount 250 g/ha"}, "[12]": {"details": "4.3 to 4.5 leaf stage, 20th day after application, 125 g/ha"}, "[13]": {"details": "4.3 to 4.5 leaf stage, 20th day after application, 250 g/ha"}}, "note": "Read-outs that look alike come from different tables or passages of the source.", "data": [{"smiles": "CCNc1nc(Cl)nc(NC(C)C)n1", "note": "[Atrazine, atrazine, reference compound]", "values": [{"measurement": "inhibition at 125 g/ha", "setting": "[1]; [4]", "result": 10, "unit": "%"}, {"measurement": "inhibition at 1000 g/ha", "setting": "[1]; 2.8 to 3.6 leaf stage, 24th day after application, 1000 g/ha", "result": 15, "unit": "%"}, {"measurement": "inhibition at 1500 g/ha", "setting": "[1]; 2.8 to 3.6 leaf stage, 24th day after application, 1500 g/ha", "result": 15, "unit": "%"}, {"measurement": "inhibition at 2000 g/ha", "setting": "[1]; [5]", "result": 25, "unit": "%"}, {"measurement": "inhibition at 125 g/ha", "setting": "[1]; [6]", "result": 0, "unit": "%"}, {"measurement": "inhibition at 125 g/ha", "setting": "[1]; 3.0 to 3.5 leaf stage, 21st day after application, 125 g/ha", "result": 10, "unit": "%"}, {"measurement": "inhibition at 250 g/ha", "setting": "[1]; 3.0 to 3.5 leaf stage, 21st day after application, 250 g/ha", "result": 20, "unit": "%"}, {"measurement": "inhibition at 150 g/ha", "setting": "[1]; 3.0 to 3.8 leaf stage, 15th day after application", "result": 0, "unit": "%"}, {"measurement": "inhibition at 175 g/ha", "setting": "[1]; [7]", "result": 3, "unit": "%"}, {"measurement": "inhibition at 375 g/ha", "setting": "[1]; [7]", "result": 5, "unit": "%"}, {"measurement": "inhibition at 150 g/ha", "setting": "[1]; 3.2 to 5.0 leaf stage, 21st day after application", "result": 60, "unit": "%"}, {"measurement": "inhibition at 150 g/ha", "setting": "[1]; 3.5 to 4.3 leaf stage, 21st day after application", "result": 0, "unit": "%"}, {"measurement": "inhibition at 175 g/ha", "setting": "[1]; [8]", "result": 20, "unit": "%"}, {"measurement": "inhibition at 375 g/ha", "setting": "[1]; [8]", "result": 25, "unit": "%"}, {"measurement": "inhibition at 31 g/ha", "setting": "[2]; Ipomoea, ivyleaf morningglory 1.5 to 2.1 leaf stage, 23rd day after application, 31 g/ha, read-out: Growth inhibition rate (%) of ivyleaf morningglory, Measured value", "result": 0, "unit": "%"}, {"measurement": "inhibition at 90 g/ha", "setting": "[2]; Ipomoea, ivyleaf morningglory 1.5 to 2.1 leaf stage, 23rd day after application, 90 g/ha, read-out: Growth inhibition rate (%) of ivyleaf morningglory, Measured value", "result": 0, "unit": "%"}, {"measurement": "inhibition at 180 g/ha", "setting": "[2]; Ipomoea, ivyleaf morningglory 1.5 to 2.1 leaf stage, 23rd day after application, 180 g/ha, read-out: Growth inhibition rate (%) of ivyleaf morningglory, Measured value", "result": 0, "unit": "%"}, {"measurement": "inhibition at 500 g/ha", "setting": "[2]; Ipomoea, ivyleaf morningglory 1.5 to 2.1 leaf stage, 23rd day after application, read-out: Growth inhibition rate (%) of ivyleaf morningglory, Measured value", "result": 83, "unit": "%"}, {"measurement": "inhibition at 175 g/ha", "setting": "[3]; [9]", "result": 0, "unit": "%"}, {"measurement": "inhibition at 375 g/ha", "setting": "[3]; [9]", "result": 20, "unit": "%"}, {"measurement": "inhibition at 375 g/ha", "setting": "[3]; [10]", "result": 0, "unit": "%"}, {"measurement": "inhibition at 125 g/ha", "setting": "[3]; 3.2 to 4.3 leaf stage, on the 22nd day after application, active ingredient amount 125 g/ha", "result": 0, "unit": "%"}, {"measurement": "inhibition at 250 g/ha", "setting": "[3]; [11]", "result": 0, "unit": "%"}, {"measurement": "inhibition at 150 g/ha", "setting": "[3]; 3.8 to 4.4 leaf stage, 21st day after application, 150 g/ha", "result": 0, "unit": "%"}, {"measurement": "inhibition at 125 g/ha", "setting": "[3]; 4.0 to 4.5 leaf stage, 21st day after application, 125 g/ha", "result": 10, "unit": "%"}, {"measurement": "inhibition at 250 g/ha", "setting": "[3]; 4.0 to 4.5 leaf stage, 21st day after application, 250 g/ha", "result": 10, "unit": "%"}, {"measurement": "inhibition at 125 g/ha", "setting": "[3]; [12]", "result": 0, "unit": "%"}, {"measurement": "inhibition at 250 g/ha", "setting": "[3]; [13]", "result": 0, "unit": "%"}]}, {"smiles": "COc1cc(OC)nc(NC(=O)NS(=O)(=O)c2ncccc2C(=O)N(C)C)n1", "note": "[Nicosulfuron]", "values": [{"measurement": "inhibition at 10 g/ha", "setting": "[1]; 2.5 to 3.3 leaf stage, 21st day after application, 10 g/ha", "result": 10, "unit": "%"}, {"measurement": "inhibition at 20 g/ha", "setting": "[1]; 2.5 to 3.3 leaf stage, 21st day after application, 20 g/ha", "result": 20, "unit": "%"}, {"measurement": "inhibition at 30 g/ha", "setting": "[1]; 2.5 to 3.3 leaf stage, 21st day after application, 30 g/ha", "result": 20, "unit": "%"}, {"measurement": "inhibition at 80 g/ha", "setting": "[1]; 2.8 to 3.6 leaf stage, 24th day after application, 80 g/ha", "result": 60, "unit": "%"}, {"measurement": "inhibition at 15 g/ha", "setting": "[1]; 3.0 to 3.5 leaf stage, 21st day after application", "result": 45, "unit": "%"}, {"measurement": "inhibition at 15 g/ha", "setting": "[1]; 3.0 to 3.8 leaf stage, 28th day after application", "result": 10, "unit": "%"}, {"measurement": "inhibition at 50 g/ha", "setting": "[1]; 3.3 to 4.3 leaf stage, 20th day after application, 50 g/ha", "result": 50, "unit": "%"}, {"measurement": "inhibition at 7 g/ha", "setting": "[2]; prickly sida 2.1 to 3.1 leaf stage, 20th day after application, 7 g/ha, read-out: Growth inhibition rate (%) of prickly sida, Measured value", "result": 0, "unit": "%"}, {"measurement": "inhibition at 20 g/ha", "setting": "[2]; prickly sida 2.1 to 3.1 leaf stage, 20th day after application, 20 g/ha, read-out: Growth inhibition rate (%) of prickly sida, Measured value", "result": 0, "unit": "%"}, {"measurement": "inhibition at 30 g/ha", "setting": "[2]; prickly sida 2.1 to 3.1 leaf stage, 20th day after application, 30 g/ha, read-out: Growth inhibition rate (%) of prickly sida, Measured value", "result": 10, "unit": "%"}, {"measurement": "inhibition at 60 g/ha", "setting": "[2]; prickly sida 2.1 to 3.1 leaf stage, 20th day after application, 60 g/ha, read-out: Growth inhibition rate (%) of prickly sida, Measured value", "result": 55, "unit": "%"}, {"measurement": "inhibition at 30 g/ha", "setting": "[3]; 3.5 to 4.2 leaf stage, 20th day after application, 30 g/ha", "result": 92, "unit": "%"}, {"measurement": "inhibition at 15 g/ha", "setting": "[3]; 3.8 to 4.4 leaf stage, 21st day after application", "result": 45, "unit": "%"}, {"measurement": "inhibition at 15 g/ha", "setting": "[3]; 3.8 to 5.2 leaf stage, 21st day after application", "result": 40, "unit": "%"}, {"measurement": "inhibition at 15 g/ha", "setting": "[3]; 4.3 to 4.5 leaf stage, 20th day after application", "result": 88, "unit": "%"}]}, {"smiles": "CCNc1nc(Cl)nc(NC(C)(C)C)n1", "note": "[Terbuthylazine, terbuthylazine, reference compound]", "values": [{"measurement": "inhibition at 125 g/ha", "setting": "[1]; 2.0 to 2.5 leaf stage, 21st day after application, 125 g/ha", "result": 0, "unit": "%"}, {"measurement": "inhibition at 125 g/ha", "setting": "[1]; [4]", "result": 5, "unit": "%"}, {"measurement": "inhibition at 2000 g/ha", "setting": "[1]; [5]", "result": 20, "unit": "%"}, {"measurement": "inhibition at 125 g/ha", "setting": "[1]; [6]", "result": 0, "unit": "%"}, {"measurement": "inhibition at 375 g/ha", "setting": "[1]; 3.3 to 4.3 leaf stage, 20th day after application", "result": 20, "unit": "%"}, {"measurement": "inhibition at 750 g/ha", "setting": "[1]; 3.3 to 4.3 leaf stage, 20th day after application, 750 g/ha", "result": 30, "unit": "%"}, {"measurement": "inhibition at 175 g/ha", "setting": "[1]; [8]", "result": 15, "unit": "%"}, {"measurement": "inhibition at 375 g/ha", "setting": "[1]; [8]", "result": 25, "unit": "%"}, {"measurement": "inhibition at 45 g/ha", "setting": "[2]; prickly sida 2.1 to 3.1 leaf stage, 20th day after application, 45 g/ha, read-out: Growth inhibition rate (%) of prickly sida, Measured value", "result": 0, "unit": "%"}, {"measurement": "inhibition at 63 g/ha", "setting": "[2]; prickly sida 2.1 to 3.1 leaf stage, 20th day after application, 63 g/ha, read-out: Growth inhibition rate (%) of prickly sida, Measured value", "result": 0, "unit": "%"}, {"measurement": "inhibition at 125 g/ha", "setting": "[2]; prickly sida 2.1 to 3.1 leaf stage, 20th day after application, 125 g/ha, read-out: Growth inhibition rate (%) of prickly sida, Measured value", "result": 0, "unit": "%"}, {"measurement": "inhibition at 250 g/ha", "setting": "[2]; prickly sida 2.1 to 3.1 leaf stage, 20th day after application, 250 g/ha, read-out: Growth inhibition rate (%) of prickly sida, Measured value", "result": 15, "unit": "%"}, {"measurement": "inhibition at 500 g/ha", "setting": "[2]; prickly sida 2.1 to 3.1 leaf stage, 20th day after application, read-out: Growth inhibition rate (%) of prickly sida, Measured value", "result": 55, "unit": "%"}, {"measurement": "inhibition at 175 g/ha", "setting": "[3]; [10]", "result": 0, "unit": "%"}, {"measurement": "inhibition at 375 g/ha", "setting": "[3]; [10]", "result": 0, "unit": "%"}, {"measurement": "inhibition at 250 g/ha", "setting": "[3]; [11]", "result": 20, "unit": "%"}, {"measurement": "inhibition at 125 g/ha", "setting": "[3]; 3.5 to 4.0 leaf stage, 21st day after application, 125 g/ha", "result": 0, "unit": "%"}, {"measurement": "inhibition at 125 g/ha", "setting": "[3]; [12]", "result": 0, "unit": "%"}, {"measurement": "inhibition at 250 g/ha", "setting": "[3]; [13]", "result": 0, "unit": "%"}]}]}
